The text below walks through data of article PMC9737648, “Novel Approaches for the Solid-Phase Synthesis of Dihydroquinazoline-2(1H)-One Derivatives and Biological Evaluation as Potential Anticancer Agents” (Molecules, 2022).

A value given as a limit tells only on which side of the number the result lay.

Assay [1] has as its system human liver cancer cells (HepG-2). The experiment in a line: MTT cytotoxicity assay, HepG-2. To be noted: 72-h incubation. The class given is cell-based. On the procedure: (§1) The above cells were tested for cytotoxicity to identify the most promising antitumor drug among the synthesized quinazolinone derivatives.
(§2) An MTT assay was used to evaluate the in vitro cytotoxicity of the new compounds. The MTT assay depends on the reduction of soluble 3-([…])-2,5-diphenyl-tetrazolium bromide (MTT) into a blue purple formazan product, mainly by mitochondrial reductase activity inside living cells. […] The cells were suspended in growth medium and plated in 96-well culture plates at a density of 4 × 10^4 cells/well and incubated at 37 °C in a 5% CO2 incubator. […] Each experiment was performed at least 3 times.

Assay [2] has as its system breast cancer cells (MDA-MB-231). In words: MTT cytotoxicity assay, MDA-MB-231. The class given is cell-based, human. Particulars: 72-h incubation. The protocol: as §1, §2
Assay [3] deals with ovarian cancer cells (A2780). In words: MTT cytotoxicity assay, A2780. The class given is cell-based, human. To be noted: 72-h incubation. On the procedure: as §1, §2
On the technique in general: Formazan colour is commonly taken as a measure of viable cells.

For assay [4], the system named is human hepatic stellate cells (LX-2). In words: MTT cytotoxicity assay, LX-2 normal control. The class given is cell-based. To be noted: 72-h incubation. On the procedure: as §1, §2
A short description of assay [5]: DPPH• free radical scavenging assay. Particulars: for IC50: concentration required to scavenge 50% of the DPPH, 30 min in the dark; for antioxidant activity (in words): DPPH assay. On the procedure:
The quinazolinone derivatives were evaluated for their free radical scavenging activity at 320, 160, 80, 40, 20, and 10 µM concentration using the DPPH radical method, with ascorbic acid as the positive control (Table 3).
The antiradical activity of the compounds was estimated according to a slight modification of the procedure reported by Morales and Jimenez-Perez. […] Each sample (100 μL) at a different concentration was added to a freshly prepared solution of 1,1-diphenyl-2-picrylhydrazyl (DPPH•) radical (0.2 mM, 100 μL). The mixtures (200 μL) were placed in a 96-well microplate, shaken vigorously, and then left to stand for 30 min in the dark. Then, absorbance was immediately measured at a wavelength of 517 nm. Vc was used as the standard. The antiradical activity for each compound was determined in the Vc equivalent antioxidant capacity. The DPPH• solution in the presence of ethanol and in the absence of compounds was tested and used as a negative control. […] In all experiments, the samples were analyzed in triplicate, and activity for each compound was presented as the mean value ± SEM and used for evaluation of structure–activity relationships. […] Absorbance was taken at 520 nm using a microplate reader (Tecan, Männedorf, Switzerland).
(In general: DPPH is a stable violet radical that fades when it is reduced.)

By IC50 is commonly meant the point on the concentration scale where inhibition reaches its midpoint. Lower therefore signals higher potency. Regarding “4-{2-{1-(3-ammoniopropyl)-2-oxo-6-[2-(thiophen-2-yl)acetamido]-1,2,3,4-tetrahydroquinazolin-4-yl}acetamido}-4-carbamoylpiperidin-1-aminium 2,2,2-trifluoroacetate [CA5]”, the IC50 in assay [1] is 65.5 ± 3.16 µM; in assay [2] it was 74.81 ± 0.27 µM; in assay [3] it was 32.3 ± 6.21 µM; in assay [4], over 100 µM; in assay [5] it was 465 ± 8.61 µM.

As to `NCCCN1C(=O)NC(CC(=O)NC(CO)C(N)=O)c2cc([N+](=O)[O-])ccc21` (centres unmarked) [CA1-6, 3-{4-{2-[(1-amino-3-hydroxy-1-oxopropan-2-yl)amino]-2-oxoethyl}-6-nitro-2-oxo-3,4-dihydroquinazolin-1(2H)-yl}propan-1-aminium 2,2,2-trifluoroacetate], the IC50 in assay [1] (Homo sapiens, HepG2, 72 h) is 52.3 ± 3.45 µM; in assay [2] (Homo sapiens), 81.2 ± 1.54 µM; in assay [3] (Homo sapiens, A2780, 72 h), 83.2 ± 2.69 µM; in assay [4] (Homo sapiens), 97.9 ± 15.6 µM; in assay [5], over 1000 µM.

For `NCCCN1C(=O)NC(CC(=O)NC(CO)C(N)=O)c2cc(N)ccc21` (centres unmarked) [CA1-7, 4-{2-[(1-amino-3-hydroxy-1-oxopropan-2-yl)amino]-2-oxoethyl}-1-(3-ammoniopropyl)-2-oxo-1,2,3,4-tetrahydroquinazolin-6-aminium 2,2,2-trifluoroacetate], the IC50 in assay [1] (Homo sapiens, HepG2, 72 h) was 59.3 ± 1.85 µM; in assay [2] (Homo sapiens), 90.1 ± 10.9 µM; in assay [3] (Homo sapiens, A2780, 72 h), 79.8 ± 1.01 µM; in assay [4] (Homo sapiens), over 100 µM; in assay [5] it was 57.99 ± 0.38 µM.

For `NCCCN1C(=O)NC(CC(=O)NC(CO)C(N)=O)c2cc(NC(=O)c3ccncc3)ccc21` (centres unmarked) [CA1-a, 3-{4-{2-[(1-amino-3-hydroxy-1-oxopropan-2-yl)amino]-2-oxoethyl}-6-(isonicotinamido)-2-oxo-3,4-dihydroquinazolin-1(2H)-yl}propan-1-aminium 2,2,2-trifluoroacetate], the IC50 in assay [1] (Homo sapiens, HepG2, 72 h) is 54.4 ± 3.45 µM; in assay [2] (Homo sapiens), 86 ± 2.06 µM; in assay [3] (Homo sapiens, A2780, 72 h), 80 ± 2.15 µM; in assay [4] (Homo sapiens), over 100 µM; in assay [5], over 1000 µM.

Regarding `NCCCN1C(=O)NC(CC(=O)NC(CO)C(N)=O)c2cc(NC(=O)c3ccccc3)ccc21` (centres unmarked) [CA1-b, 3-{4-{2-[(1-amino-3-hydroxy-1-oxopropan-2-yl)amino]-2-oxoethyl}-6-benzamido-2-oxo-3,4-dihydroquinazolin-1(2H)-yl}propan-1-aminium 2,2,2-trifluoroacetate], the IC50 is 60.1 ± 3.88 µM in assay [1] (Homo sapiens, HepG2, 72 h); 76.6 ± 2.42 µM in assay [2] (Homo sapiens); over 100 µM in assay [3] (Homo sapiens, A2780, 72 h); 85.8 ± 4.28 µM in assay [4] (Homo sapiens); over 1000 µM in assay [5].

Consider `Cc1ccc(C(=O)Nc2ccc3c(c2)C(CC(=O)NC(CO)C(N)=O)NC(=O)N3CCCN)cc1` (centres unmarked) [CA1-c, 3-{4-{2-[(1-amino-3-hydroxy-1-oxopropan-2-yl)amino]-2-oxoethyl}-6-(4-methylbenzamido)-2-oxo-3,4-dihydroquinazolin-1(2H)-yl}propan-1-aminium 2,2,2-trifluoroacetate], for which the IC50 in assay [1] is 48.1 ± 2.34 µM; in assay [1] (Homo sapiens, HepG2, 72 h), under 50 µM; in assay [2] (Homo sapiens) it was 92.4 ± 4.91 µM; in assay [3] (Homo sapiens, A2780, 72 h) it was over 100 µM; in assay [4] (Homo sapiens), 85.4 ± 1.78 µM; in assay [5], 387 ± 58.8 µM.

For `NCCCN1C(=O)NC(CC(=O)NC(CO)C(N)=O)c2cc(NC(=O)c3ccc(F)cc3)ccc21` (centres unmarked) [CA1-d, 3-{4-{2-[(1-amino-3-hydroxy-1-oxopropan-2-yl)amino]-2-oxoethyl}-6-(4-fluorobenzamido)-2-oxo-3,4-dihydroquinazolin-1(2H)-yl}propan-1-aminium 2,2,2-trifluoroacetate], the IC50 is 49.6 ± 1.91 µM in assay [1]; under 50 µM in assay [1] (Homo sapiens, HepG2, 72 h); 85.7 ± 4.87 µM in assay [2] (Homo sapiens); 88.3 ± 8.56 µM in assay [3] (Homo sapiens, A2780, 72 h); over 100 µM in assay [4] (Homo sapiens); over 1000 µM in assay [5].

For `NCCCN1C(=O)NC(CC(=O)NC(CO)C(N)=O)c2cc(NC(=O)c3cccnc3)ccc21.O=C(O)C(F)(F)F` (centres unmarked) [CA1-e, 3-{4-{2-[(1-amino-3-hydroxy-1-oxopropan-2-yl)amino]-2-oxoethyl}-6-(nicotinamido)-2-oxo-3,4-dihydroquinazolin-1(2H)-yl}propan-1-aminium 2,2,2-trifluoroacetate], the IC50 in assay [1] was 37.6 ± 5.53 µM; in assay [1] (Homo sapiens, HepG2, 72 h), under 50 µM; in assay [2] (Homo sapiens) it was 85.7 ± 5.3 µM; in assay [3], 22.76 ± 0.22 µM; in assay [3] (Homo sapiens, A2780, 72 h), under 40 µM; in assay [4] (Homo sapiens), over 100 µM. Moreover, the IC50 in assay [5] is over 1000 µM. Moreover, in assay [5], the “antioxidant activity (in words)” value is on record as “no antioxidant activity”.

Regarding `NCCCN1C(=O)NC(CC(=O)NC(CO)C(N)=O)c2cc(NC(=O)c3ccccn3)ccc21` (centres unmarked) [CA1-f, 3-{4-{2-[(1-amino-3-hydroxy-1-oxopropan-2-yl)amino]-2-oxoethyl}-2-oxo-6-(picolinamido)-3,4-dihydroquinazolin-1(2H)-yl}propan-1-aminium 2,2,2-trifluoroacetate], the IC50 was 44.4 ± 2.2 µM in assay [1]; under 50 µM in assay [1] (Homo sapiens, HepG2, 72 h); 81.3 ± 1.21 µM in assay [2] (Homo sapiens); over 100 µM in assay [3] (Homo sapiens, A2780, 72 h); 97 ± 4.24 µM in assay [4] (Homo sapiens); over 1000 µM in assay [5].

For the compound `NCCCN1C(=O)NC(CC(=O)NC(CO)C(N)=O)c2cc(NC(=O)COc3ccccc3)ccc21.O=C(O)C(F)(F)F` (centres unmarked) [CA1-g, 3-{4-{2-[(1-amino-3-hydroxy-1-oxopropan-2-yl)amino]-2-oxoethyl}-2-oxo-6-(2-phenoxyacetamido)-3,4-dihydroquinazolin-1(2H)-yl}propan-1-aminium 2,2,2-trifluoroacetate], the IC50 in assay [1] was 45.4 ± 0.59 µM; in assay [1] (Homo sapiens, HepG2, 72 h), under 50 µM; in assay [2] (Homo sapiens), 82.21 ± 0.59 µM; in assay [3], 24.9 ± 7.22 µM; in assay [3] (Homo sapiens, A2780, 72 h), under 40 µM; in assay [4] (Homo sapiens), over 100 µM. Also, the IC50 in assay [5] was over 1000 µM. Moreover, the “antioxidant activity (in words)” value in assay [5] is “no antioxidant activity”.

`NCCCN1C(=O)NC(CC(=O)NC(CO)C(N)=O)c2cc(NC(=O)CCc3cccnc3)ccc21` (centres unmarked) [CA1-h, 3-{4-{2-[(1-amino-3-hydroxy-1-oxopropan-2-yl)amino]-2-oxoethyl}-2-oxo-6-[3-(pyridin-3-yl)propanamido]-3,4-dihydroquinazolin-1(2H)-yl}propan-1-aminium 2,2,2-trifluoroacetate]: the IC50 is 56.93 ± 0.47 µM in assay [1] (Homo sapiens, HepG2, 72 h); 82.2 ± 11.4 µM in assay [2] (Homo sapiens); 86.1 ± 3.73 µM in assay [3] (Homo sapiens, A2780, 72 h); 97.5 ± 3.52 µM in assay [4] (Homo sapiens); over 1000 µM in assay [5].

Regarding `NCCCN1C(=O)NC(CC(=O)NC(CO)C(N)=O)c2cc(NC(=O)Cc3cccs3)ccc21` (centres unmarked) [CA1-i, 3-{4-{2-[(1-amino-3-hydroxy-1-oxopropan-2-yl)amino]-2-oxoethyl}-2-oxo-6-[2-(thiophen-2-yl)acetamido]-3,4-dihydroquinazolin-1(2H)-yl}propan-1-aminium 2,2,2-trifluoroacetate], the IC50 in assay [1] (Homo sapiens, HepG2, 72 h) was 49.77 ± 0.12 µM; in assay [2] (Homo sapiens), 89.7 ± 3.79 µM; in assay [3], 34.4 ± 5.61 µM; in assay [3] (Homo sapiens, A2780, 72 h) it was under 40 µM; in assay [4] (Homo sapiens), over 100 µM; in assay [5], 557 ± 24.5 µM.

In the case of `COc1ccccc1S(=O)(=O)Nc1ccc2c(c1)C(CC(=O)NC(CO)C(N)=O)NC(=O)N2CCCN` (centres unmarked) [CA1-j, 3-{4-{2-[(1-amino-3-hydroxy-1-oxopropan-2-yl)amino]-2-oxoethyl}-6-[(2-methoxyphenyl)sulfonamido]-2-oxo-3,4-dihydroquinazolin-1(2H)-yl}propan-1-aminium 2,2,2-trifluoroacetate], the IC50 in assay [1] (Homo sapiens, HepG2, 72 h) was 73.8 ± 1.03 µM; in assay [2] (Homo sapiens), 76.3 ± 2.05 µM; in assay [3] (Homo sapiens, A2780, 72 h), 83.6 ± 1.24 µM; in assay [4] (Homo sapiens) it was over 100 µM; in assay [5], over 1000 µM.

`CC(C)CCN1C(=O)NC(CC(=O)NC(CCCN)C(N)=O)c2cc(NC(=O)CCc3cccnc3)ccc21` (centres unmarked) [CA3, 5-amino-4-{2-{1-isopentyl-2-oxo-6-[3-(pyridin-3-yl)propanamido]-1,2,3,4-tetrahydroquinazolin-4-yl}acetamido}-5-oxopentan-1-aminium 2,2,2-trifluoroacetate]: the IC50 in assay [1] (Homo sapiens, HepG2, 72 h) is 64.2 ± 4.69 µM; in assay [2] (Homo sapiens) it was 86 ± 11.1 µM; in assay [3] (Homo sapiens, A2780, 72 h), 82.9 ± 2.13 µM; in assay [4] (Homo sapiens), over 100 µM; in assay [5], over 1000 µM.

As to `CC(C)(NC(=O)CC1NC(=O)N(Cc2ccccc2)c2ccc(NC(=O)COc3ccccc3)cc21)C(N)=O` (centres unmarked) [CA4, 2-{2-[1-benzyl-2-oxo-6-(2-phenoxyacetamido)-1,2,3,4-tetrahydroquinazolin-4-yl]acetamido}-2-methylpropanamide], the IC50 was determined as 72.7 ± 2.76 µM in assay [1] (Homo sapiens, HepG2, 72 h); 87.1 ± 4.47 µM in assay [2] (Homo sapiens); 66.2 ± 4.1 µM in assay [3] (Homo sapiens, A2780, 72 h); 72.9 ± 0.91 µM in assay [4] (Homo sapiens); 951 ± 30.6 µM in assay [5].

Regarding `O=C1O[C@H]([C@@H](O)CO)C(O)=C1O` [Vc, ascorbic acid, reference compound], it took 22.5 ± 0.57 µM to reach half-maximal inhibition in assay [5] (IC50).
